Source: patent publication US20210395239A1 (Hoffmann-La Roche Inc., priority 2018, published 2021)

Assays:
[1] = molecular target: T1, CYP2C9 (Homo sapiens, UniProt P11712); assay: CYP inhibition assay in human liver microsome, CYP2C9; format: in vitro ADME; conditions: human, human liver microsomes, probe diclofenac 5 μM, substrate diclofenac 5 μM, first value of 2C9/2D6/3A4
T1 construct: tissue BD-Gentest 452117; host or cells: human liver microsomes
Method: (§1) This is a high throughput screening assay used for assessment of reversible inhibition of CYP2C9, CYP2D6, and CYP3A4 activity of test compounds in human liver microsome (HLM) in early discovery stage.
(§2) 10 mM DMSO stock solutions of test compounds were diluted in DMSO to generate 2 mM intermediate stock solution. 250 nL, of intermediate stock solution were transferred in duplicate into 3 separate 384 well microtitre plates (assay-ready plates). A mixture of HLM and each substrate was made up. 45 μL of HLM substrate mix was then transferred to each well of an assay ready plate and mixed. The negative (solvent) and positive controls (standard inhibitor for each CYP) were included in each assay ready plate. The assay ready plate was warmed to 37° C. in an incubator over 10 minutes. 5 μL pre-warmed NADPH regenerating system was added to each incubation well to start the reaction. Final incubation volume was 50 μL. The assay plate then was placed back in the 37° C. incubator. After incubation (10 minutes for CYP2D6) for 5 minutes, incubates were quenched by addition of 50 μL 100% acetonitrile containing internal standards (400 ng/mL 13C6-4′-OH-Diclofenac, 20 ng/mL D3-Dextrorphan and 20 ng/mL D4-1′OH-Midazolam). The supernatants were collected for RapidFire/MS/MS analysis.
(§3) RapidFire online solid phase extraction/sample injection system (Agilent) coupled with API4000 triple quadrupole mass spectrometer (AB Sciex) were used for sample analysis. The mobile phase composed of acetonitrile and water supplemented with 0.1% formic acid. A C4 solid phase extraction cartridge is used for sample separation. MS detection is achieved in positive ion MRM mode.
(§4) Peak areas for substrate, metabolite and internal standard are determined using the RapidFire integrator software (version 3.6.12009.12296). Peak area ratios (PAR) of metabolite and internal standard (stable-labelled metabolite) are then calculated. The measurement window for each experiment is then defined:
(§5) PAR (0% activity)=average PAR for all incubations containing concentrated inhibitor; Par (100% activity)=average PAR for all incubations containing no inhibitor (DMSO controls); % Activity (test inhibitor)=[PAR (test inhibitor)−PAR (0% activity)]/[PAR (100% activity)−PAR (0% activity)]; % Inhibition (test inhibitor)=100-% Activity (test inhibitor).

[2] = molecular target: T2, CYP3A4 (Homo sapiens, UniProt P08684); assay: CYP inhibition assay in human liver microsome, CYP3A4; format: in vitro ADME; conditions: human, human liver microsomes, probe midazolam 5 μM, substrate midazolam 5 μM, third value of 2C9/2D6/3A4
T2 construct: tissue BD-Gentest 452117; host or cells: human liver microsomes
T2 sequence (P08684 whole entry): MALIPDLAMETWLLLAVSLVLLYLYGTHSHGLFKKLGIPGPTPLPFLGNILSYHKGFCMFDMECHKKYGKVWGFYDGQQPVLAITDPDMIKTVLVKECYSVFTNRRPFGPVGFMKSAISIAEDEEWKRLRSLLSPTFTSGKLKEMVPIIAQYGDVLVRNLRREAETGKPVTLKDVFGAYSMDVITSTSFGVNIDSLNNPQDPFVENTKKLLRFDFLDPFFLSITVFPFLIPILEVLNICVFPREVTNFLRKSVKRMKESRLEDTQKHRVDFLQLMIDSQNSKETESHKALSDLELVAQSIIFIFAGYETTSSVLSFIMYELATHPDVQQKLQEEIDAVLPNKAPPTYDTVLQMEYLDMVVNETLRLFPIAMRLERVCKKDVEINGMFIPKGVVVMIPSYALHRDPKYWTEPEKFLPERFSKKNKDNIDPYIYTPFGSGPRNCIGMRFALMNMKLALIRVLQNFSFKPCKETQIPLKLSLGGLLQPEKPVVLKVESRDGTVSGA
Method: as §1, §2, §3, §4, §5

[3] = molecular target: T3, hERG channel (Homo sapiens, UniProt Q12809); assay: hERG channel inhibition assay (patch-clamp, CHOhERG cells); format: cell-based
T3 construct: expressed in transfected cells; host or cells: CHO (Chinese hamster ovary)
T3 sequence (Q12809 whole entry): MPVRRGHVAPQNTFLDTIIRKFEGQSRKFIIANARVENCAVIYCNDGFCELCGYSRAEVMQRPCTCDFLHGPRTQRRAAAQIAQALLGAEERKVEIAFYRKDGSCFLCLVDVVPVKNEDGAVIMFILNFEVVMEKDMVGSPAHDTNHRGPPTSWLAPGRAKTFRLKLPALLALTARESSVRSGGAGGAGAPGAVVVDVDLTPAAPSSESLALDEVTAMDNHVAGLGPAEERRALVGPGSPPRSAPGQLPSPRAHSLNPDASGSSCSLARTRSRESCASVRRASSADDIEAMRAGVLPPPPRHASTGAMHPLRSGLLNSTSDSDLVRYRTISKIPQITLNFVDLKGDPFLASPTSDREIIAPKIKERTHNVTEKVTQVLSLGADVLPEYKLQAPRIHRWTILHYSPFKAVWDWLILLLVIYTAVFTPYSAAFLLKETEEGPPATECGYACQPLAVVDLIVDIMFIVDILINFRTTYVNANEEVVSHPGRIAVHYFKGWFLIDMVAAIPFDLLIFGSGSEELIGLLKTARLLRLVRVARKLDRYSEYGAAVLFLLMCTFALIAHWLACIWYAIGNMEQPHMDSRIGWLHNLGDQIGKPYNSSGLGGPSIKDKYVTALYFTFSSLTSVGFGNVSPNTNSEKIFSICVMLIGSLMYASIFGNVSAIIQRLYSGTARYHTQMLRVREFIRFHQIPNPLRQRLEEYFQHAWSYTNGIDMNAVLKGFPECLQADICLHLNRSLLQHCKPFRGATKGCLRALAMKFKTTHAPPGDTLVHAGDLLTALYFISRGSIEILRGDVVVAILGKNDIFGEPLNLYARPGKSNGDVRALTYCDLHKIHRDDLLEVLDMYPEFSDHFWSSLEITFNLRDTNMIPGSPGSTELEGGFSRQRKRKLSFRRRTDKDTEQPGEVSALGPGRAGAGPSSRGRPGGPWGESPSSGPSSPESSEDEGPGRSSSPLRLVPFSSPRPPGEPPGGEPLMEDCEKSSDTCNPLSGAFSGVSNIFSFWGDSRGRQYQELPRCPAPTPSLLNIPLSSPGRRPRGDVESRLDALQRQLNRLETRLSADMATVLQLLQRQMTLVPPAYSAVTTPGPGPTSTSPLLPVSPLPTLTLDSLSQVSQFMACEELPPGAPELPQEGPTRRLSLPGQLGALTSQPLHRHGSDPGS
Method: hERG Channel Inhibition Assay:
The hERG K^+ channels were cloned in humans and stably expressed in a CHO (Chinese hamster ovary) cell line. CHOhERG cells were used for patch-clamp (voltage-clamp, whole-cell) experiments. Cells were stimulated by a voltage pattern to activate hERG channels and conduct IKhERG currents (rapid delayed outward rectifier potassium current of the hERG channel). After the cells were stabilized for a few minutes, the amplitude and kinetics of IKhERG were recorded at a stimulation frequency of 0.1 Hz, (6 bpm). Thereafter, the test compound was added to the preparation at increasing concentrations. For each concentration, an attempt was made to reach a steady-state effect, usually, this was achieved within 3-10 min at which time the next highest concentration was applied. The amplitude and kinetics of IKhERG are recorded in each concentration of the drug which were compared to the control values (taken as 100%). (references: Redfern W S, Carlsson L, Davis A S, Lynch W G, MacKenzie I, Palethorpe S, Siegl P K, Strang I, Sullivan A T, Wallis R, Camm A J, Hammond T G. 2003; Relationships between preclinical cardiac electrophysiology, clinical QT interval prolongation and torsade de pointes for a broad range of drugs: evidence for a provisional safety margin in drug development. Cardiovasc. Res. 58:32-45, Sanguinetti M C, Tristani-Firouzi M. 2006; hERG potassium channels and cardiac arrhythmia. Nature 440:463-469, Webster R, Leishman D, Walker D. 2002; Towards a drug concentration effect relationship for QT prolongation and torsades de pointes. Curr. Opin. Drug Discov. Devel. 5:116-26).

[4] = molecular target: T4, hTLR9 (Homo sapiens, UniProt Q9NR96); design: host or cells: HEK; conditions: data disclosed in US20150105370; read-out: HEK/hTLR9 IC50; cited from earlier work
T4 sequence (Q9NR96 26-1032): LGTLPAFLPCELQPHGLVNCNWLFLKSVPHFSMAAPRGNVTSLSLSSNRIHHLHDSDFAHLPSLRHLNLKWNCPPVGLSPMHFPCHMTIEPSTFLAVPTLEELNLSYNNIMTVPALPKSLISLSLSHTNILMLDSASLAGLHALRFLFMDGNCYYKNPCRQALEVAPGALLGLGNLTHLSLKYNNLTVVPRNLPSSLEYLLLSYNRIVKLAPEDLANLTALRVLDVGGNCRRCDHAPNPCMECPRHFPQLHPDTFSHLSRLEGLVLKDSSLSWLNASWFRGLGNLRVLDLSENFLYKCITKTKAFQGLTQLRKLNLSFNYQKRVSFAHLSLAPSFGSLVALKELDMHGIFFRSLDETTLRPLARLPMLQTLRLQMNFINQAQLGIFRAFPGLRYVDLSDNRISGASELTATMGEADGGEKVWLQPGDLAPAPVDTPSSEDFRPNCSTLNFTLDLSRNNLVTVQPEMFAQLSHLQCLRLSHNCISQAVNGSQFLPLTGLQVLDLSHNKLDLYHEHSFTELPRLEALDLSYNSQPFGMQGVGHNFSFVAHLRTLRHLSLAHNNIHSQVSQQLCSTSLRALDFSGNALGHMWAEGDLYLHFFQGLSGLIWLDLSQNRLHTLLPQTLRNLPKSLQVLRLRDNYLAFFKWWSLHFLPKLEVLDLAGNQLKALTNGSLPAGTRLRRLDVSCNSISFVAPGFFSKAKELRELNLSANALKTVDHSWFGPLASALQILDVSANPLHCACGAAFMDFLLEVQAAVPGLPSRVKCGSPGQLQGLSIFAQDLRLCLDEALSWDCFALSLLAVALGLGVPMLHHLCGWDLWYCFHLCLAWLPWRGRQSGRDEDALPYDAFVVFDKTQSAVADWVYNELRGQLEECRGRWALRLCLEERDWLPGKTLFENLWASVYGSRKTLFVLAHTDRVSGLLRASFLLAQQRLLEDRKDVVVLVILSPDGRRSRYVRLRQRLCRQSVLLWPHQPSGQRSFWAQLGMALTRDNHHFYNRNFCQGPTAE

T1 sequence (P11712 whole entry): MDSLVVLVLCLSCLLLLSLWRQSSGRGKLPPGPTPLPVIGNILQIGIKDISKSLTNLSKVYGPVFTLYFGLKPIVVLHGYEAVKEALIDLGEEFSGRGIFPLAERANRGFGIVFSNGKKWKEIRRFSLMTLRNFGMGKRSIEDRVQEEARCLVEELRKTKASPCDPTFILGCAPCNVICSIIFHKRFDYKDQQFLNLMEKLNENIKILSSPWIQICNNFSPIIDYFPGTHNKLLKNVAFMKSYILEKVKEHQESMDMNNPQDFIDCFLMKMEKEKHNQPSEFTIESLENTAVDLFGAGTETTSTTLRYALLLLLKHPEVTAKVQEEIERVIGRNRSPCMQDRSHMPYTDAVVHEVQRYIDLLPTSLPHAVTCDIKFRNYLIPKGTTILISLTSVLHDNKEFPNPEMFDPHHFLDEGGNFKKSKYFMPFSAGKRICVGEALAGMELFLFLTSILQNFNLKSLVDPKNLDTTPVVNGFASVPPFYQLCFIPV

C[C@@H]1CN(c2ccc(C#N)c3ncccc23)C[C@H](CN2CCN(c3ccncc3)CC2)O1 [ER-888286, reference compound]
inhibition at 5 min, 10 µM [1]: 29.5%
inhibition at 5 min, 10 µM [2]: 5.5%
safety window (hERG IC20/TLR7/8/9 IC50) compared to the compounds of this invention ([3]; result in words): much narrower safety window
hERG IC20/TLR7 IC50 ([3]; safety ratio): 0.3
hERG IC20/TLR9 IC50 ([3]; safety ratio): 0.2
IC50 [4]: > 2000 nM
